Test [1] is described as follows: Oral spray bitterness masking taste test by volunteers with Coptis chinensis standard bitter solution. The format is in vivo, healthy volunteers. Details: key to Reduction of bitterness: drop in bitterness value (0.5–5.5 scale) from initial. The following applies: for inhibition in vivo at 0.2 %: Homo sapiens, read-out: Reduction range. On the procedure: Purpose of the experiment: it is to screen out compounds that take effect within 5 seconds, last for 30-120 seconds, and it is expected, by using such kind of compounds, the taste of the drug cannot be felt during the duration (30-120 seconds) when taking the drug.
Principle of the experiment: simulate the process of taking medicine and using the taste masking agents, first spray about 0.5 ml of oral spray on the throat (3 times), and after it takes effect quickly, taste 10 ml of bitter standard solution to screen drugs that can be used in advance and can mask the bitter taste.
• 1: Volunteer screening. The research team strictly screened the recruited volunteers and finally selected healthy volunteers as subjects. They signed informed consent forms before the experiment; • 2: Standard bitterness sample preparation. The bitterness of the samples was divided into five levels, and each level was assigned a certain bitterness value range; • 3: The sensory standard was corrected by the oral taste evaluation method, that is, the sensory standard was corrected by comparing the taste evaluation of the volunteers with the established bitterness value of the reference sample group. Specific steps: when the volunteers are doing the oral tasting test, the reference solutions of various concentrations are placed in the tasting cups, and the volunteers hold one of the solutions in their mouths, time it, and rinse their mouths by using the solution so that the bitter taste perception area at the root and sides of the tongue can fully feel the bitter taste of the drug. […] Then dilute all the selected taste masking drugs, prepare the solution, take 10 ml and put it into the spray bottle, spray it into the mouth 3 times, stay for 5 seconds, drink 10 ml of standard bitterness solution, feel and record the bitterness value, keep the standard bitterness solution in the mouth until the bitterness rises, and record the retention time. • 5: Quality control. […] Since the experimental objects are biological samples and there are individual differences between different subjects, there may be individual outliers in the experimental test data. The Grubbs test method was used to exclude outliers in the data, and then the experimental data were plotted in tables and curves for data analysis.
It is necessary to process the experimental data. Specifically, the Grubbs test method was used to perform a circular test and elimination of outliers on the data, and a bilateral test was used to eliminate outliers in the oral test. Considering the characteristics of biological samples, the detection level was selected as 0.1 and the elimination level was selected as 0.05 in this experiment.
The experimental medicinal material processing method mentioned in the above technical scheme is as follows: Preparation of bitter standard solution, use 10 g of Coptis chinensis powder, add 100 ml of pure water above 90 degrees, stir, let stand for 20 minutes, take the supernatant for use, determine the standard bitterness of 4.0 degrees by oral tasting, dilute 5 times, determine the standard bitterness of 2.0 degrees, dilute 2.0 degrees again 5 times, determine the standard bitterness of 0.5 degrees. Compare with the bitterness scoring table, (level 1 means “no bitterness or almost no bitterness”, the bitterness value is 0.5˜1.5; level 2 means “slightly bitter”, the bitterness value is 1.5˜2.5; level 3 means “bitter but acceptable”, the bitterness value is 2.5˜3.5; level 4 means “very bitter, but still tolerable”, the bitterness value is 3.5˜4.5; level 5 means “unbearable bitterness”, the bitterness value is 4.5˜5.5). Adjust the judgment and cognition of bitterness.
The standard bitterness solution used in this experiment to verify the experimental effect is a 4.0 degree bitterness solution of Coptis chinensis prepared according to the above method.

The target in test [2] is T1, sodium ion channel of Trpm5 bitter receptor (Mus musculus, UniProt Q9JJH7).
T1 construct: Put the removed tongue in a 2 ml EP tube, add 1-1.5 ml of 0.25% trypsin solution; from tissue; host or cells: cells dissociated with trypsin from mouse tongue
T1 sequence (Q9JJH7 1-1158): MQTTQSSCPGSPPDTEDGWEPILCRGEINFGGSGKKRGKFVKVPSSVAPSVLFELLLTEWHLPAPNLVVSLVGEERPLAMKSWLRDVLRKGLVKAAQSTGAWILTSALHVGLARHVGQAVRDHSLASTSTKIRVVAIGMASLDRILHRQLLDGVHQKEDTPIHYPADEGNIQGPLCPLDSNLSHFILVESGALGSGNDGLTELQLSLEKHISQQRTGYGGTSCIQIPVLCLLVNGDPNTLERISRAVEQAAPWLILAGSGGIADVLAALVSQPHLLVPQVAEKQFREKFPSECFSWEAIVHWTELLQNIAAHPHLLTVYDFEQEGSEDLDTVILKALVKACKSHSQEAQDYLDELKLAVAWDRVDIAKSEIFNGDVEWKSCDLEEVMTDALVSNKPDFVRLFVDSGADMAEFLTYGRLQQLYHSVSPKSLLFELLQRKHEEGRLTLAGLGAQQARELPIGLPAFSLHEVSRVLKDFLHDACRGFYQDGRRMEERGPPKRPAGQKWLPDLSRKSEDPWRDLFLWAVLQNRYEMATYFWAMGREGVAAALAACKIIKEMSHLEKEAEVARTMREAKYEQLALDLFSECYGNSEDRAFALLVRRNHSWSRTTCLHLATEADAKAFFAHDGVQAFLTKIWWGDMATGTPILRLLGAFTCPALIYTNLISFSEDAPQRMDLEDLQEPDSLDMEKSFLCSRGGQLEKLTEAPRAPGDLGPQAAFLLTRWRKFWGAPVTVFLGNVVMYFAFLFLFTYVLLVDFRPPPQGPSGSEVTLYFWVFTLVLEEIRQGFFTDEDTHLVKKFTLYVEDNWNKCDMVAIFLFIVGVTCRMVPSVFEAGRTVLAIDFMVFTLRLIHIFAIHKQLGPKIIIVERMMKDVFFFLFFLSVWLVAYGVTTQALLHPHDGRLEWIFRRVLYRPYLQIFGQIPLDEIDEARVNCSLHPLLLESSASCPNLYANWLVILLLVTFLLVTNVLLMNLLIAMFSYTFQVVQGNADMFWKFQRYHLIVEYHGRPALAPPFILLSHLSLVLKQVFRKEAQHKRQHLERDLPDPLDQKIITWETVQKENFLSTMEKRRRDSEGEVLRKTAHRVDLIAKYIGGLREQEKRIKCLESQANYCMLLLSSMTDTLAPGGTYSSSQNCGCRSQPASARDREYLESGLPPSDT
In words: Immunofluorescence experiment of sodium ion channels in mouse tongue cells stimulated with bitter agent. Type of test: cell-based, mice. The following applies: for blocking effect on the sodium ion channel (result analysis in words): judged from change of sodium ion fluorescence after bitter drug. As to the method: The mouse was killed by dislocation, and the tongue was removed (minimizing tongue bleeding), disinfected with alcohol for 2 minutes (adding sodium citrate for anticoagulation), and washed with D-Hanks solution or rinsed with 10 ml of saline solution drawn by a syringe.
Take out the centrifuge tube from the constant temperature incubator, shake for 2 minutes, blow the undigested tongue several times with the gun tip, take out the tongue, cover it with the EP tube cap, put it in a centrifuge, centrifuge at 3000 rpm for 3 minutes, discard the supernatant, add cell culture medium (containing 10% inactivated serum), blow and disperse the cells, and place it in a 37° C. constant temperature incubator for 30 min to allow the cells to recover.
(1) Take out the prepared ENG-2 AM storage solution and warm it to room temperature for use, keeping it away from light. The concentration of the pre-prepared stock solution is 2 mM and it is stored at −18° C. for future use.
(2) Dilute the ENG-2 AM+DMSO stock solution to a […] working solution using serum-free culture medium.
(3) Load the probe in a serum-free culture medium containing an appropriate concentration of AM probe.
Take out the cells from the incubator, centrifuge, and discard the culture medium. Wash the cells once with D-Hanks solution, centrifuge, and discard the culture medium. Add 1 ml of culture medium again, then add 300 ul of sodium ion probe dilution solution, blow and disperse the cells, and incubate the cells at room temperature or 37° C. for 1 hour.
At the end of incubation, centrifuge at 100 rpm for 2 minutes, discard the supernatant, add 500 ul of cell culture medium without AM probe, blow and disperse the cells, and incubate for 20-60 min to ensure that the cells completely deesterify the AM group.
(4) Take 10 ul of incubation solution and drop it into the center of the cell counting plate, cover it with a slide, and observe it under a fluorescence microscope.
(5) Use a low-power microscope to find the cells, open the fluorescence path, detect the fluorescence signal with a fluorescence microscope, change to a high-power microscope, find the appropriate observation cells, observe and take pictures to record the initial signal.
(2) Experimental drugs: Add 5 ul of the tested drug to one side of the cover glass on the cell counting plate, use absorbent paper to absorb water on the opposite side, let the solution soak the cells, and then use a fluorescence microscope to observe and take 3-5 photos, one every 1-2 minutes; then add 5 ul of the standard bitter drug to one side of the cover glass on the cell counting plate, use absorbent paper to absorb water on the opposite side, let the solution soak the cells, and then use a fluorescence microscope to observe and take 3-5 photos, one every 1-2 minutes.
(5) Data analysis: Use Image J-Fiji software to analyze the images, compare the average values of the fluorescence pixels, remove the base number and compare them in the table, draw FIGS. 4-6, and use SPSS18.0 to perform chi-square tests to compare the differences between the data groups.

Setting [3] is: 0.2% solution in 60% ethanol as oral spray, relative to original bitterness 4.0.
Setting [4] is: Bitterant 60 s (2% metronidazole solution).
Where [5] appears, read: Bitterant 120 s (2% metronidazole solution).
The mark [6] stands for this setting: Bitterant 180 s (2% metronidazole solution).
Setting [7] is: Initial (before addition of drug), sodium ion dye ENG-2 AM.
Where [8] appears, read: Bitterant 240 s (2% metronidazole solution).

Where two headings read alike, the source gives them in different places.

In test [1] (0.2% solution in 60% ethanol as oral spray, original bitterness average 4.0, average of 31 cases), `CCCCCC1=C(C)CCC1=O` [Dihydrojasmone] had a Reduction of bitterness of 0. Besides, in test [1] (setting [3]), the Reduction range worked out at 0.00%.
Regarding `CC1CCC(C(C)C)C(OC(=O)C(C)O)C1` (centres unmarked) [Menthyl lactate, 2-hydroxypropionic acid-5-methyl-2-(1-methylethyl)cyclohexyl ester], the “average value of fluorescence brightness” value in test [2] (Addition of drugs) worked out at 28.425; in test [2] (setting [4]), 28.141; in test [2] (setting [5]), 27.831; in test [2] (setting [6]) it was 28.191; in test [2] (setting [7]) it was 28.538. Further, the “average value of fluorescence brightness, base number removed” value (from here on “average value … base number removed”) in test [2] (Addition of drugs) is −0.113; in test [2] (setting [4]) it was −0.397; in test [2] (setting [5]), −0.707; in test [2] (setting [6]), −0.347; in test [2] (Initial), 0. Moreover, the “blocking effect on the sodium ion channel (result analysis in words)” value (“blocking effect” for short) in test [2] is given as “can block the sodium ion channel of Trpm5 bitter receptor”.
In the case of `COC(=O)C1=C(C)NC(C)=C(C(=O)OC)C1c1ccccc1[N+](=O)[O-]` [Nifedipine, reference compound], in test [1] (setting [3]), the inhibition in vivo at 0.2 % was 0%.
For the compound `Cc1ccc(C(C)C)cc1O` [Carvacrol], in test [1] (po), the inhibition in vivo at 0.2 % was 0%.
In the case of Hydroxyvanillic acid, the “average value of fluorescence brightness” value in test [2] (Addition of drugs) is 28.082; in test [2] (setting [4]) it was 27.496; in test [2] (setting [5]), 27.697; in test [2] (setting [6]) it was 27.919; in test [2] (setting [7]) it was 27.989. In addition, the “average value … base number removed” value in test [2] (Addition of drugs) was 0.093; in test [2] (setting [4]), −0.493; in test [2] (setting [5]) it was −0.292; in test [2] (setting [6]), −0.07; in test [2] (Initial), 0. Moreover, the “blocking effect” value in test [2] was “have poor effects and do not have bitterness masking effect”.
In the case of `CC1CCC(C(C)C)C(O)C1` (centres unmarked) [Menthol, 2-isopropyl-5-methylcyclohexanol], the “average value of fluorescence brightness” value in test [2] (Addition of drugs) is recorded as 22.118; in test [2] (setting [4]) it was 22.04; in test [2] (setting [5]), 21.924; in test [2] (setting [6]) it was 21.907; in test [2] (setting [8]) it was 20.562; in test [2] (setting [7]), 22.553. Also, the “average value … base number removed” value was −0.435 in test [2] (Addition of drugs); −0.513 in test [2] (setting [4]); −0.629 in test [2] (setting [5]); −0.646 in test [2] (setting [6]); −1.991 in test [2] (setting [8]); 0 in test [2] (Initial). Also, the “blocking effect” value in test [2] is listed as “can block the sodium ion channel of Trpm5 bitter receptor”.
As to `NCCCC(=O)O` [GABA, 4-aminobutyric acid], the “average value of fluorescence brightness” value came out at 27.367 in test [2] (Addition of drugs); 27.287 in test [2] (setting [4]); 27.21 in test [2] (setting [5]); 27.127 in test [2] (setting [6]); 27.285 in test [2] (setting [7]). Moreover, the “average value … base number removed” value is on record as 0.082 in test [2] (Addition of drugs); 0.002 in test [2] (setting [4]); −0.075 in test [2] (setting [5]); −0.158 in test [2] (setting [6]); 0 in test [2] (Initial). In addition, the “blocking effect” value in test [2] was “have poor effects and do not have bitterness masking effect”.

Source of the values: patent US20250108023A1, “Products for Masking Bitterness” (The Third People's Hospital of Henan Province, priority 2023, published 2025).
